One series concerns the target KDM5A (Homo sapiens (Human), UniProt P29375). The series can be described thus: Biochemical KDM5A Inhibition Assay (HTRF). The following applies: KDM5A protein, biotin-labelled H3K4-Me3 substrate. Here is the method:
Biochemical KDM5A Inhibition Assay
Using 384-well white Greiner784075 (Greiner), representative compounds were characterized for their inhibition of KDM5A using HTRF® technology (Cisbio Bioassays). Briefly, the test compounds, reference compounds, and DMSO control (typical compound concentration range 1 μM-[…], final assay concentration (FAC*) of DMSO 0.5%) were added to 384-well plate by the Echo® acoustic dispensing platform (Labcyte). Five (5) 1l of KDM5A protein (produced by the method described in Nat Chem Biol 12, 531-538 (2016)). (5-20 nM FAC*) in assay buffer (50 mM MES, 50 mM NaCl, 1 mM TCEP, 0.01% v/v Tween 20, 0.03% BSA, pH 6.5) was added to wells and plates were incubated for 10-20 minutes at 25 degrees celsius. Then, 5 μl of alpha-ketoglutaric acid (100 μM FAC*), biotin-labelled H3K4-Me3 substrate (Anaspec Cat #AS-64357-1; 200 nM FAC*), Fe(II)SO4 (100 μM FAC*) and ascorbic acid (2 mM FAC*) in assay buffer was added to wells and plates were incubated for 20 minutes at room temperature. The reaction was stopped with the addition of 10 μl of anti-H3K4-Me2-Eu(K) (Cisbio Bioassays Cat #61KA2KAH; 0.75 nM FAC**)+Streptavidin XL665 (Cisbio Bioassays Cat #610SAXLB; 25 nM FAC**) in HTRF detection buffer (Cisbio Bioassays Cat #62SDBRDF). The mixture was incubated for 30 minutes at room temperature before 340 nm excitation and measurement of dual emission at 620 nm and 665 run. *FAC: final assay concentration calculated based on 10 μl of the assay buffer**FAC: final assay concentration calculated based on 20 μl of the detection buffer
The raw data (a 665 nm and a 620 nm reading from each well) for individual assay plates were analyzed. The ratio of emissions was calculated using the following calculation: Ratio=(665 nm emission/620 nm emission)×10000. […] Compound IC50 values were calculated from graphs of % inhibition plotted against compound concentration, using a four parameter curve fit. [Results]
On the technique in general: Time-resolved FRET reads energy transfer from a long-lived donor to a nearby acceptor.

The nature of series [1]: Metabolic Stability in Human Liver Microsomes. In kind it is in vitro ADME. The procedure:
Metabolic Stability in Human Liver Microsomes
Human liver microsome (BD Gentest Corporation, Cat No. #452161) incubations were conducted in duplicate in 96-well plates. Each well contains 40 μL of 0.1 M potassium phosphate buffer (pH 7.4), 4.125 mM MgCl2, 0.625 mg/mL liver microsomes, and test compound (1.25 μM). After 5-min preincubation at 37° C., 10 uL of 5.0 mM NADPH in 0.1M potassium phosphate buffer was added to initiate the enzymatic reaction. The final component concentrations are 0.1M potassium phosphate buffer (pH 7.4), 1.0 mM NADPH, 3.3 mM MgCl2, 0.5 mg/mL liver microsomes, and test compound (1.0 μM). Reactions were terminated at 0 and 60 min by adding 200 μL of ice-cold acetonitrile containing internal standard.
LC-MS/MS analysis was conducted as specified below.
The remaining at 60 min (%) of test compound was calculated from the peak area ratio (test compound/internal standard) of samples collected 0 and 60 min after the start of the reaction according to the formula described below. Remaining at 60 min (%)=peak area ratio of sample collected at 60 min/peak area ratio of sample collected at 0 min×100 [Results]
(Microsomes from liver hold many membrane-bound enzymes, among them those of drug oxidation.)

Setting [2] is: 0.5 mg/mL liver microsomes, 1.0 μM test compound, 1.0 mM NADPH, 37° C., 60 min.

Sequence of KDM5A (P29375 whole entry): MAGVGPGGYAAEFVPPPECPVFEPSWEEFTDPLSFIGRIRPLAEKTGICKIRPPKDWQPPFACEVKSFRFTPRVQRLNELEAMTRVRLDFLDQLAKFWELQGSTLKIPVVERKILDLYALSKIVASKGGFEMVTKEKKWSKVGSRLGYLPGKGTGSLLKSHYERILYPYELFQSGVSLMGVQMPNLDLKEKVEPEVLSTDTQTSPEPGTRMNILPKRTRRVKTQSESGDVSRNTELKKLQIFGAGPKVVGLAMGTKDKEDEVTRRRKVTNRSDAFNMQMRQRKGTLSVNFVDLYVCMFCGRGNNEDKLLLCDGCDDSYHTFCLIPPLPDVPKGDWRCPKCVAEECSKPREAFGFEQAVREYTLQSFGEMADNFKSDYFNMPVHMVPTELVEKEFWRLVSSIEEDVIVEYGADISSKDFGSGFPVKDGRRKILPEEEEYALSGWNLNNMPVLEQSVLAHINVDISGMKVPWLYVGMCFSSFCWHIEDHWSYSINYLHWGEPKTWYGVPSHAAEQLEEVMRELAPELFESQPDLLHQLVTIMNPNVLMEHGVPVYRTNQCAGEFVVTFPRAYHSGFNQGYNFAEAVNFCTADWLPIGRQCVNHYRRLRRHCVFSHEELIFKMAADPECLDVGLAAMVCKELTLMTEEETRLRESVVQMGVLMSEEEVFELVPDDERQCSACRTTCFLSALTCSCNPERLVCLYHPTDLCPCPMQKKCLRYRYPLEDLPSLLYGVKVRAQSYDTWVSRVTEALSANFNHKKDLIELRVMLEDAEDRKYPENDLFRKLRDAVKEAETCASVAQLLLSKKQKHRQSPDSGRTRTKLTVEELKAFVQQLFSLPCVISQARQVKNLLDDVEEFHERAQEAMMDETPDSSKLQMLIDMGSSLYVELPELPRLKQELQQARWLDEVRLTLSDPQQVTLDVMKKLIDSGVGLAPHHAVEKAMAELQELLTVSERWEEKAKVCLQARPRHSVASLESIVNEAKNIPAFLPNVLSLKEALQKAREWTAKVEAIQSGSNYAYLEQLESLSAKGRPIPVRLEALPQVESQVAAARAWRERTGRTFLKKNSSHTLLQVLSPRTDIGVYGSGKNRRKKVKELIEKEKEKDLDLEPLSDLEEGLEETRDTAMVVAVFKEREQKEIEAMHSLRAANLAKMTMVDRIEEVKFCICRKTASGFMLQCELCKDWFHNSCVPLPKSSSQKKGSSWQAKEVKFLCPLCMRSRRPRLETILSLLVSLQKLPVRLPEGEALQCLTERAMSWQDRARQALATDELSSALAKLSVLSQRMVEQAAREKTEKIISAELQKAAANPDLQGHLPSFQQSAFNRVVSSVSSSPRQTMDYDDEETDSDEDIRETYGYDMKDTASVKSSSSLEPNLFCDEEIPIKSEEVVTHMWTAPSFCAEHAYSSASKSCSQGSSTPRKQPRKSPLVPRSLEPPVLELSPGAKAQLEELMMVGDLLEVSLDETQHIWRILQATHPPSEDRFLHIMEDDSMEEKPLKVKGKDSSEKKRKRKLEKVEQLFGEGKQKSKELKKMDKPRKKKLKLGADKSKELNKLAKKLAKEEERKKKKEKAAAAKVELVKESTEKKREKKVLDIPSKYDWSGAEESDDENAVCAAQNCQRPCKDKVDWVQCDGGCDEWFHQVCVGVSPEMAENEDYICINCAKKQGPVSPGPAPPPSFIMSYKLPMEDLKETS

`Cc1onc([C@H]2[C@@H]3CN(C(=O)c4cc(C(C)C)[nH]n4)C[C@@H]32)c1-c1ccccn1` [Example 106, (5-isopropyl-1H-pyrazol-3-yl){(1R,5S,6r)-6-[5-methyl-4-(2-pyridinyl)-1,2-oxazol-3-yl]-3-azabicyclo[3.1.0]hex-3-yl}methanone] registered an IC50 against KDM5A of 0.04 µM.

The molecule `CC(C)n1cnc(C(=O)N2C[C@@H]3[C@H](C2)[C@H]3c2nnn3ccccc23)c1` [Example 62, (1-isopropyl-1H-imidazol-4-yl)[(1R,5S,6r)-6-([1,2,3]triazolo[1,5-a]pyridin-3-yl)-3-azabicyclo[3.1.0]hex-3-yl]methanone] yielded an IC50 on KDM5A of 0.01 µM. The “Metabolic stability in human liver microsomes (% remaining at 60 min)” value (“Metabolic stability … (% remaining at 60 min)” for short) in series [1] (human, microsomes, 1 h) was 83%. `C[C@@H](c1ccc(C#N)cc1)n1cnc(C(=O)N2C[C@@H]3[C@H](C2)[C@H]3C2=NOC(C)(C)C2)c1` [Example 24, 4-[(1S)-1-(4-{[(1R,5S,6S)-6-(5,5-dimethyl-4,5-dihydro-1,2-oxazol-3-yl)-3-azabicyclo[3.1.0]hex-3-yl]carbonyl}-1H-imidazol-1-yl)ethyl]benzonitrile] displayed a 50% inhibitory concentration (IC50) on KDM5A of 0.2 µM. Also, in series [1] (human, microsomes, 1 h), the “Metabolic stability … (% remaining at 60 min)” value is 101%. Molecule `Cc1cc([C@H]2[C@@H]3CN(C(=O)c4cn(C(C)C)cn4)C[C@@H]32)no1` [Example 56, (1-isopropyl-1H-imidazol-4-yl)[(1R,5S,6r)-6-(5-methyl-1,2-oxazol-3-yl)-3-azabicyclo[3.1.0]hex-3-yl]methanone] gave an IC50 against KDM5A of 0.2 µM.

`CC(C)n1cnc(C(=O)N2C[C@@H]3[C@H](C2)[C@H]3C(=O)N(C)C(C)(C)C)c1` [Example 66, (1R,5S,6r)-N-tert-butyl-N-methyl-3-[1-(propan-2-yl)-1H-imidazole-4-carbonyl]-3-azabicyclo[3.1.0]hexane-6-carboxamide] registered an IC50 against KDM5A of 0.03 µM. Further, the “Metabolic stability … (% remaining at 60 min)” value in series [1] (setting [2]) is on record as 89%. Turning to `CCN1C([C@H]2[C@@H]3CN(C(=O)c4cc(C(C)C)[nH]n4)C[C@@H]32)=NOC1(C)C` [Example 110, [(1R,5S,6r)-6-(4-ethyl-5,5-dimethyl-4,5-dihydro-1,2,4-oxadiazol-3-yl)-3-azabicyclo[3.1.0]hex-3-yl](5-isopropyl-1H-pyrazol-3-yl)methanone], on KDM5A, half-maximal inhibition (IC50) was put at 0.05 µM. Besides, the “Metabolic stability … (% remaining at 60 min)” value in series [1] (human, microsomes, 1 h) is recorded as 85%. Consider `CC(n1cnc(C(=O)N2C[C@@H]3C(C4=NOC(C)(C)C4)[C@@H]3C2)c1)C(F)(F)F` (stereo partly drawn) [Example 9, [(1R,5S,6r)-6-(5,5-dimethyl-4,5-dihydro-1,2-oxazol-3-yl)-3-azabicyclo[3.1.0]hex-3-yl][1-(1,1,1-trifluoropropan-2-yl)-1H-imidazol-4-yl]methanone], for which 0.4 µM corresponded to half-maximal inhibition against KDM5A (IC50). In addition, the “Metabolic stability … (% remaining at 60 min)” value in series [1] (human, microsomes, 1 h) was 93%. Turning to `CC(C)n1cnc(C(=O)N2C[C@@H]3C(C4=NOC(C)(C(F)F)C4)[C@@H]3C2)c1` (stereo partly drawn) [Example 40, {(1R,5S,6r)-6-[5-(difluoromethyl)-5-methyl-4,5-dihydro-1,2-oxazol-3-yl]-3-azabicyclo[3.1.0]hex-3-yl}(1-isopropyl-1H-imidazol-4-yl)methanone], at KDM5A, the concentration for half-maximal inhibition (IC50) was 0.2 µM. The “Metabolic stability … (% remaining at 60 min)” value in series [1] (setting [2]) stood at 103%. For `CC(c1cc(C(=O)N2C[C@@H]3C(C4=NOC(C)(C)C4)[C@@H]3C2)n[nH]1)C1CC1` (stereo partly drawn) [Example 90, [5-(1-cyclopropylethyl)-1H-pyrazol-3-yl][(1R,5S,6r)-6-(5,5-dimethyl-4,5-dihydro-1,2-oxazol-3-yl)-3-azabicyclo[3.1.0]hex-3-yl]methanone], in that order: 0.05 µM and 100%.

The molecule `CC1CC(C2[C@H]3CN(C(=O)c4cc(C(C)C)[nH]n4)C[C@@H]23)=NO1` (stereo partly drawn) [Example 93, (5-isopropyl-1H-pyrazol-3-yl)[(1R,5S,6r)-6-(5-methyl-4,5-dihydro-1,2-oxazol-3-yl)-3-azabicyclo[3.1.0]hex-3-yl]methanone] displayed an IC50 at KDM5A of 0.2 µM. Besides, the “Metabolic stability … (% remaining at 60 min)” value in series [1] (human, microsomes, 1 h) is on record as 86%. In turn, `Cc1cc([C@H]2[C@@H]3CN(C(=O)c4cc(C(C)C)[nH]n4)C[C@@H]32)no1` [Example 103, (5-isopropyl-1H-pyrazol-3-yl)[(1R,5S,6r)-6-(5-methyl-1,2-oxazol-3-yl)-3-azabicyclo[3.1.0]hex-3-yl]methanone] yielded a half-maximal inhibitory concentration (IC50) against KDM5A of 0.2 µM. Take `CC(C)n1cnc(C(=O)N2C[C@@H]3[C@H](C2)[C@@]3(C)C2=NOC3(CC3)C2)c1` [Example 84, (1-isopropyl-1H-imidazol-4-yl)[(1R,5S,6r)-6-methyl-6-(4-oxa-5-azaspiro[2.4]hept-5-en-6-yl)-3-azabicyclo[3.1.0]hex-3-yl]methanone]: half-maximal inhibition against KDM5A (IC50) required 0.03 µM. The “Metabolic stability … (% remaining at 60 min)” value in series [1] (setting [2]) is on record as 92%. On to `CC(C)c1cc(C(=O)N2C[C@@H]3[C@H](C2)[C@H]3c2nnn[nH]2)n[nH]1` [Example 134, (5-isopropyl-1H-pyrazol-3-yl)[(1R,5S,6r)-6-(1H-tetrazol-5-yl)-3-azabicyclo[3.1.0]hex-3-yl]methanone], for which the IC50 against KDM5A came to 0.004 µM. Consider `CC(C)n1cnc(C(=O)N2C[C@@H]3[C@H](C2)[C@H]3c2nnn[nH]2)c1` [Example 63, (1-isopropyl-1H-imidazol-4-yl)[(1R,5S,6r)-6-(1H-tetrazol-5-yl)-3-azabicyclo[3.1.0]hex-3-yl]methanone], for which 0.01 µM corresponded to half-maximal inhibition against KDM5A (IC50). For the molecule `Cc1onc([C@H]2[C@@H]3CN(C(=O)c4cn(C(C)C)cn4)C[C@@H]32)c1-c1ccccc1` [Example 55, (1-isopropyl-1H-imidazol-4-yl)[(1R,5S,6r)-6-(5-methyl-4-phenyl-1,2-oxazol-3-yl)-3-azabicyclo[3.1.0]hex-3-yl]methanone], half-maximal inhibition against KDM5A (IC50) was put at 0.02 µM. On to `C[C@@H](c1ccccc1C#N)n1cnc(C(=O)N2C[C@@H]3[C@H](C2)[C@H]3C2=NOC(C)(C)C2)c1` [Example 22, 2-[(1S)-1-(4-{[(1R,5S,6S)-6-(5,5-dimethyl-4,5-dihydro-1,2-oxazol-3-yl)-3-azabicyclo[3.1.0]hex-3-yl]carbonyl}-1H-imidazol-1-yl)ethyl]benzonitrile], for which, on KDM5A, 0.4 µM corresponded to half-maximal inhibition (IC50). For the molecule `Cc1csc(C(=O)[C@H]2[C@@H]3CN(C(=O)c4cn(C(C)C)cn4)C[C@@H]32)c1` [Example 77, (1-isopropyl-1H-imidazol-4-yl){(1R,5S,6r)-6-[(4-methyl-2-thienyl)carbonyl]-3-azabicyclo[3.1.0]hex-3-yl}methanone], 0.02 µM corresponded to half-maximal inhibition at KDM5A (IC50). On KDM5A, `CC(C)n1cnc(C(=O)N2C[C@@H]3[C@H](C2)[C@H]3C(=O)c2cccs2)c1` [Example 76, (1-isopropyl-1H-imidazol-4-yl)[(1R,5S,6r)-6-(2-thienylcarbonyl)-3-azabicyclo[3.1.0]hex-3-yl]methanone] showed an IC50 of 0.06 µM. In turn, `CC(C)c1cc(C(=O)N2C[C@@H]3[C@H](C2)[C@H]3c2nnn3ccccc23)n[nH]1` [Example 132, (5-isopropyl-1H-pyrazol-3-yl)[(1R,5S,6r)-6-([1,2,3]triazolo[1,5-a]pyridin-3-yl)-3-azabicyclo[3.1.0]hex-3-yl]methanone] displayed an IC50 against KDM5A of 0.04 µM. On to `CC(C)c1cc(C(=O)N2C[C@@H]3[C@H](C2)[C@H]3C(=O)N(C)C2(C)CC2)n[nH]1` [Example 138, (1R,5S,6r)-N-methyl-N-(1-methylcyclopropyl)-3-[5-(propan-2-yl)-1H-pyrazole-3-carbonyl]-3-azabicyclo[3.1.0]hexane-6-carboxamide], for which, at KDM5A, the IC50 was 0.8 µM. Same read-out and setting: in the case of `Cc1c([C@H]2[C@@H]3CN(C(=O)c4cc(C(C)C)[nH]n4)C[C@@H]32)noc1C(F)F` [Example 104, {(1R,5S,6r)-6-[5-(difluoromethyl)-4-methyl-1,2-oxazol-3-yl]-3-azabicyclo[3.1.0]hex-3-yl}(5-isopropyl-1H-pyrazol-3-yl)methanone] it was 0.04 µM.

As a reminder, the IC50 is the concentration at which inhibition is half-maximal. High values mean weaker potency, low ones greater potency.

Source of the values: patent US11691968B2, “Compound having KDM5 inhibitory activity and pharmaceutical use thereof” (ONO PHARMACEUTICAL CO., LTD., priority 2020, dated 2023).
